Experimental findings from ChEMBL document CHEMBL4765295, “Synthesis, pharmacological profile and 2D-QSAR studies of curcumin-amino acid conjugates as potential drug candidates” (Eur J Med Chem, 2020) are described below.

SMILES strings stand for the structures. Where “and” joins values, the source holds several entries; their conditions need not be identical. Identical values can stand only once.

Experiment [1] deals with Splenocyte. Briefly: Immunomodulatory activity in Swiss albino mouse splenocytes assessed as cell viability at 10 uM by measuring stimulation index incubated for 72 hrs in presence of mitogenic stimulus phytohaemagglutinin by MTT assay (reference value: 1.00 +/- 0.24). Type of experiment: functional.
In experiment [2] the test system is Rattus norvegicus. Briefly: Antiinflammatory activity in Wistar rat model of carrageenan-induced paw edema assessed as reduction in thickness of paw edema at 10 mg/kg, ip pretreated for 1 hr followed by carrageenan challenge and measured after 24 hrs (reference value: 0.83 +/-0.08 mm). The settings on record: time 25 hrs. Type of experiment: functional.
The test system of experiment [3] is Peritoneal macrophage. Briefly: Antiinflammatory activity in […] mouse Peritoneal macrophages assessed as inhibition of LPS-induced NO production at 10 uM preincubated for 1 hr followed by LPS stimulation measured after 24 hrs by Griess method relative to control (reference value: 0.0 %). It counts as functional. Also on record: scale not given: the % may be the effect or the level left. To be noted: time 25 hrs.

Experiment [4] deals with Peritoneal macrophage. Briefly: Antiinflammatory activity in […] mouse Peritoneal macrophages assessed as reduction in LPS-induced NO production by measuring reduction in stimulation index at 10 uM preincubated for 1 hr followed by LPS stimulation measured after 24 hrs by Griess method (reference value: 27.31 +/- 2.56 uM). It counts as functional. To be noted: time 25 hrs.

The subject of experiment [5] is Splenocyte. Briefly: Immunomodulatory activity in Swiss albino mouse splenocytes assessed as cell viability at 10 uM by measuring inhibition of stimulation index incubated for 72 hrs in presence of mitogenic stimulus phytohaemagglutinin by MTT assay relative to indomethacin. It counts as functional. The settings on record: read-out: Activity.
The test system of experiment [6] is A549. Briefly: Antiproliferative activity against human A549 cells assessed as inhibition of cell growth after 72 hrs by MTT assay. Type of experiment: functional, cell-based. The settings on record: A549, 72 h.
Experiment [7] relates to PC-3. Briefly: Antiproliferative activity against human PC3 cells assessed as inhibition of cell growth after 72 hrs by MTT assay. It counts as functional, cell-based. To be noted: PC-3, 72 h.
Experiment [8] has as its system Rattus norvegicus. Briefly: Anti-inflammatory activity in Wistar rat assessed as inhibition of carrageenan-induced paw edema at 10 mg/kg, ip pretreated for 1 hr followed by carrageenan challenge and measured after 1 hr relative to control (reference value: 0.00 +/-0.02 %). It counts as functional. To be noted: time 2 hrs.
For experiment [9], the system named is Rattus norvegicus. Briefly: Anti-inflammatory activity in Wistar rat assessed as inhibition of carrageenan-induced paw edema at 10 mg/kg, ip pretreated for 1 hr followed by carrageenan challenge and measured after 4 hr relative to indomethacin. Type of experiment: functional. The settings on record: time 5 hrs.
Experiment [10] relates to Streptococcus pyogenes. Briefly: Antibacterial activity against Streptococcus pyogenes ATCC 19615 incubated for 18 hrs by agar dilution method. Type of experiment: functional.
The subject of experiment [11] is Rattus norvegicus. Briefly: Anti-inflammatory activity in Wistar rat assessed as inhibition of carrageenan-induced paw edema at 10 mg/kg, ip pretreated for 1 hr followed by carrageenan challenge and measured after 3 hr relative to control (reference value: 0.00 +/-0.1 %). Type of experiment: functional. To be noted: time 4 hrs.
The test system of experiment [12] is Rattus norvegicus. Briefly: Antiinflammatory activity in Wistar rat model of carrageenan-induced paw edema assessed as reduction in thickness of paw edema at 10 mg/kg, ip pretreated for 1 hr followed by carrageenan challenge and measured after 3 hrs (reference value: 1.79 +/-0.07 mm). It counts as functional. To be noted: time 4 hrs.
Experiment [13] has as its system Rattus norvegicus. Briefly: Anti-inflammatory activity in Wistar rat assessed as inhibition of carrageenan-induced paw edema at 10 mg/kg, ip pretreated for 1 hr followed by carrageenan challenge and measured after 2 hr relative to control (reference value: 0.00 +/-0.03 %). The settings on record: time 3 hrs. It counts as functional.
For experiment [14], the system named is Pseudomonas aeruginosa. Briefly: Antibacterial activity against Pseudomonas aeruginosa ATCC 27853 incubated for 18 hrs by agar dilution assay. It counts as functional.
Experiment [15] deals with MCF7. Briefly: Antiproliferative activity against human MCF7 cells assessed as inhibition of cell growth after 72 hrs by MTT assay. Type of experiment: functional, cell-based. To be noted: MCF7, 72 h.
In experiment [16] the test system is Candida albicans. Briefly: Antifungal activity against Candida albicans incubated for 18 to 24 hrs by CLSI method. It counts as functional. To be noted: time 18-24 hrs.
The test system of experiment [17] is Staphylococcus aureus. Briefly: Antibacterial activity against Staphylococcus aureus ATCC 25923 incubated for 18 hrs by agar dilution method. Type of experiment: functional.
Experiment [18] concerns Rattus norvegicus. Briefly: Antiinflammatory activity in Wistar rat model of carrageenan-induced paw edema assessed as reduction in thickness of paw edema at 10 mg/kg, ip pretreated for 1 hr followed by carrageenan challenge and measured after 2 hrs (reference value: 2.06 +/-0.09 mm). Type of experiment: functional. The settings on record: time 3 hrs.
Experiment [19] concerns Salmonella typhimurium. Briefly: Antibacterial activity against Salmonella typhimurium ATCC 19430 incubated for 18 hrs by agar dilution assay. It counts as functional, Salmonella enterica subsp. enterica serovar Typhimurium. The settings on record: Salmonella enterica.
For experiment [20], the system named is Rattus norvegicus. Briefly: Antiinflammatory activity in Wistar rat model of carrageenan-induced paw edema assessed as reduction in thickness of paw edema at 10 mg/kg, ip pretreated for 1 hr followed by carrageenan challenge and measured after 1 hr (reference value: 2.41 +/-0.05 mm). Type of experiment: functional. To be noted: time 1 hr after carrageenan.

Experiment [21] relates to Rattus norvegicus. Briefly: Anti-inflammatory activity in Wistar rat assessed as inhibition of carrageenan-induced paw edema at 10 mg/kg, ip pretreated for 1 hr followed by carrageenan challenge and measured after 4 hr relative to control (reference value: 0.00 +/-0.4 %). To be noted: time 5 hrs. It counts as functional.
Experiment [22] concerns Rattus norvegicus. Briefly: Anti-inflammatory activity in Wistar rat assessed as inhibition of carrageenan-induced paw edema at 10 mg/kg, ip pretreated for 1 hr followed by carrageenan challenge and measured after 24 hr relative to control (reference value: 0.00 +/-0.3 %). It counts as functional. To be noted: time 25 hrs.
The subject of experiment [23] is Rattus norvegicus. Briefly: Antiinflammatory activity in Wistar rat model of carrageenan-induced paw edema assessed as reduction in thickness of paw edema at 10 mg/kg, ip pretreated for 1 hr followed by carrageenan challenge and measured after 4 hrs (reference value: 1.40 +/-0.10 mm). It counts as functional. The settings on record: time 5 hrs.

For the compound `COc1cc(/C=C/C(=O)/C=C(O)/C=C/c2ccc(OC(=O)[C@@H](N)CCC(N)=O)c(OC)c2)ccc1OC(=O)[C@@H](N)CCC(N)=O.Cl.Cl`, in experiment [1], the Activity_index was 2.22. The Activity in experiment [2] was 0.57 mm; in [3], 20.35%; in [4] it was 21.75 µM; in experiment [12] it was 1.02 mm; in experiment [18], 1.14 mm; in [20], 1.29 mm. The Activity in experiment [23] amounted to 0.81 mm. In [5], the viability at 10 µM came to 54.5%. The IC50 in [6] amounted to 21.1 µM; in experiment [7] it was 34.4 µM; in [15] it was 9.15 µM. For the same compound, the inhibition in vivo at 10 mg/kg in experiment [8] is 46%; in experiment [9], 48%; in experiment [11], 43%; in experiment [13] it was 45%; in experiment [21] it was 42%; in [22], 31%. Further, the minimal inhibitory concentration (MIC) in experiment [10] was 0.5 µg/mL and 0.717 µM; in experiment [14], 0.5 µg/mL and 0.717 µM; in experiment [16] it was 0.125 µg/mL and 0.179 µM; in [17], 0.25 µg/mL and 0.358 µM; in experiment [19] it was 0.125 µg/mL and 0.179 µM.
On to `COc1cc(/C=C/C(=O)/C=C(O)/C=C/c2ccc(OC(=O)[C@@H](N)Cc3ccccc3)c(OC)c2)ccc1OC(=O)[C@@H](N)Cc1ccccc1.Cl.Cl`, for which the Activity_index in [1] is 1.41. Also, the Activity in experiment [2] came to 0.66 mm; in [3], 39.74%; in experiment [4], 16.46 µM; in experiment [12], 0.66 mm; in experiment [18], 1.01 mm; in [20] it was 1.29 mm. Besides, in experiment [23], the Activity amounted to 0.22 mm. Besides, the viability at 10 µM in [5] was 85.6%. In addition, the half-maximal inhibitory concentration (IC50) in experiment [6] worked out at 33.5 µM; in experiment [7], 74.4 µM; in experiment [15] it was 11.5 µM. Besides, the inhibition in vivo at 10 mg/kg in experiment [8] came to 46%; in experiment [9], 97%; in experiment [11] it was 63%; in experiment [13], 51%; in experiment [21], 84%; in experiment [22] it was 20%. For the same compound, the MIC in experiment [10] is 0.5 µg/mL and 0.68 µM; in experiment [14], 0.5 µg/mL and 0.68 µM; in experiment [16] it was 0.5 µg/mL and 0.68 µM; in experiment [17] it was 0.25 µg/mL and 0.34 µM; in [19] it was 0.125 µg/mL and 0.17 µM.
For `COc1cc(/C=C/C(=O)/C=C(O)/C=C/c2ccc(OC(=O)[C@@H](N)C(C)C)c(OC)c2)ccc1OC(=O)[C@@H](N)C(C)C.Cl.Cl`, the Activity_index in experiment [1] is recorded as 2.05. The Activity in experiment [2] was 0.71 mm; in [3] it was 24.37%; in experiment [4], 20.65 µM; in experiment [12] it was 0.93 mm; in experiment [18] it was 1.4 mm; in [20], 0.97 mm. For the same compound, in experiment [23], the Activity is 0.75 mm. Moreover, in experiment [5], the viability at 10 µM was determined as 59%. In addition, the results for the half-maximal inhibitory concentration (IC50) in experiment [6], in [7] and in experiment [15] were 20.4 µM, 34.6 µM and 10.4 µM, respectively. Besides, the inhibition in vivo at 10 mg/kg in experiment [8] turned out to be 60%; in experiment [9], 53%; in experiment [11], 48%; in [13] it was 50%; in [21] it was 46%; in experiment [22], 14%. In addition, the MIC in experiment [10] was 0.125 µg/mL and 0.195 µM; in experiment [14], 0.25 µg/mL and 0.391 µM; in [16], 0.125 µg/mL and 0.195 µM; in [17], 0.25 µg/mL and 0.391 µM; in experiment [19], 0.125 µg/mL and 0.195 µM.
In the case of `CC[C@H](C)[C@H](N)C(=O)Oc1ccc(/C=C/C(=O)/C=C(O)/C=C/c2ccc(OC(=O)[C@@H](N)[C@@H](C)CC)c(OC)c2)cc1OC.Cl.Cl`, in experiment [1], the Activity_index amounted to 1.59. Also, the Activity in experiment [2] is 0.58 mm; in experiment [3], 35.45%; in experiment [4] it was 17.63 µM; in experiment [12], 0.94 mm; in [18], 1.31 mm; in experiment [20], 1.61 mm. Further, the Activity in experiment [23] was determined as 0.34 mm. For the same compound, the viability at 10 µM in experiment [5] came to 76%. In addition, the half-maximal inhibitory concentration (IC50) in experiment [6] came to 20.9 µM; in experiment [7] it was 34.4 µM; in experiment [15] it was 10.2 µM. Also, the inhibition in vivo at 10 mg/kg in experiment [8] was determined as 33%; in experiment [9], 87%; in experiment [11], 47%; in experiment [13], 36%; in experiment [21] it was 76%; in experiment [22], 30%. Moreover, the MIC in experiment [10] was 0.5 µg/mL and 0.749 µM; in experiment [14], 0.25 µg/mL and 0.374 µM; in [16] it was 0.125 µg/mL and 0.187 µM; in experiment [17], 0.25 µg/mL and 0.374 µM; in experiment [19], 0.125 µg/mL and 0.187 µM.
